Each structure is given as a SMILES string. Where only a bound is given, the exact number is not on record here.

In assay [1] the test system is Rb phosphorylated on serine 780 in CCNE1 amplified COV318 cells. The experiment in a line: CDK2 pRb (S780) HTRF cellular assay. In kind it is cell-based, human. The settings on record: for IC50: Homo sapiens, FIG. 10B, read-out: IC50 in p-RB S780 HTRF cellular assay. The procedure: CDK2 pRb ([…]) HTRF cellular assay enables the quantitative detection of Rb phosphorylated on […] in CCNE1 amplified COV318 cells. The assay comprised two antibodies: Europium cryptate labeled anti-Phospho-Rb […] antibody (donor) and d2 labeled anti-Rb antibody (acceptor). In brief, COV318 cells were seeded into the wells of 96-well plate at a density of 25,000 per well with 9-point, 3-fold serial diluted compounds and cultured overnight at 37 degree with 5% CO2. The final concentrations of compounds start from 3 μM. The next day cells were lysed in 70 μL 1× Phospho-total protein lysis buffer #2 (Cisbio), supplemented with 0.7 μL blocking buffer (Cisbio) and 1.4 μL protease inhibitor cocktail set III, EDTA-free (Calbiochem, 539134). 16 μL of cell lysates were mixed with 4 μL of the fluorophore-conjugated antibodies to a final concentration of 0.188 nM cryptate-labeled anti-Phospho-Rb […] antibody and 0.14 nM d2 labeled anti-Rb antibody. After 2 h of incubation at room temperature, HTRF signals were measured on the PHERAstar microplate reader (BMG Labtech), using 340 nm as excitation wavelength, a 620 nm filter for the Europium donor fluorescence, and a 665-nm filter for the acceptor fluorescence detection. HTRF signals were calculated as the HTRF ratio (ratio of fluorescence measured at 665 nm and 620 nm)×10000.

In assay [2] the test system is CCNE1-amplified cell lines (COV318, OVCAR3, Fu-OV1, KLE, MKN1, AGS, NCI-N87). Description: Cell cycle analysis by FACS in CCNE1-amplified cell lines. The settings on record: 100 nM, 16 hours, vs DMSO. Format: cell-based, human. The procedure:
The effect of CDK2-knockdown in CCNE1-amplified versus CCNE1-non-amplified cell lines was evaluated. CCNE1-amplified cell lines (Fu-OV1 and KLE) or CCNE1-non-amplified cell lines (COV504 and Igrov1) were treated with a control (“ctrl”) or CDK2-specific small interfering RNAs (“siRNAs”) (“CDK2 siRNA-1” and “CDK2 siRNA-2”) (FIGS. 2A and 2B and 3A and 3B). Seventy-two hours after transfection with the siRNAs, the cells were harvested and subjected to cell cycle analysis by fluorescence activated cell sorting (“FACS”) (FIGS. 2A and 3A). Knockdown of CDK2 was confirmed by western blot (FIGS. 2B and 3B).
The effect of CDK4/6-inhibition in CCNE1-amplified versus CCNE1-non-amplified cell lines was evaluated.
A similar experiment was performed in a larger set of CCNE1-amplified cell lines (COV318 and OVCAR3) and CCNE1-non-amplified cell lines (COV504, OV56, and Igrov1) (FIG. 6).
Next, the impact of CDK2-knockdown in these cells was evaluated. Mkn1, Ags, and NCI-N87 cells were treated with control or CDK2-specific siRNA. Three days-post-siRNA transfection, cell cycle phase distribution of the cells was evaluated by FACS. […]
Bulk DNA was stained with DAPI. Compound-treated and DMSO treated control cells were acquired with CytoFlex (Beckman Coulter) and were analyzed using the Flow Jo software. […]
For orientation: In flow cytometry, cells or beads pass a laser one at a time.

The next assay concerns the target T1, CDK2/Cyclin E1 (Homo sapiens, UniProt P24941).
T1 construct: utilize full-length human CDK2 co-expressed as N-terminal GST-tagged protein; GST (N); purchased Carna 04-165; host or cells: baculovirus expression system
Description: CDK2/Cyclin E1 HTRF enzyme activity assay (Example A). The settings on record: 1 mM ATP. In kind it is biochemical. The procedure:
CDK2/Cyclin E1 enzyme activity assays utilize full-length human CDK2 co-expressed as N-terminal GST-tagged protein with FLAG-Cyclin E1 in a baculovirus expression system (Carna Product Number 04-165). Assays are conducted in white 384-well polystyrene plates in a final reaction volume of 8 μL. CDK2/Cyclin E1 (0.25 nM) is incubated with compounds (40 nL serially diluted in DMSO) in the presence of ATP (50 μM or 1 mM) and 50 nM ULight™-labeled eIF4E-binding protein 1 (THR37/46) peptide (PerkinElmer) in assay buffer (containing 50 mM HEPES pH 7.5, 1 mM EGTA, 10 mM MgC2, 2 mM DTT, 0.05 mg/mL BSA, and 0.01% Tween 20) for 60 minutes at room temperature. The reactions are stopped by the addition of EDTA and Europium-labeled anti-phospho-4E-BP1 antibody (PerkinElmer), for a final concentration of 15 mM and 1.5 nM, respectively. HTRF signals are read after 1 hour at room temperature on a PHERAstar FS plate reader (BMG Labtech). Data is analyzed with IDBS XLFit and GraphPad Prism 5.0 software using a three or four parameter dose response curve to determine IC50 for each compound.
On the technique in general: Time-resolved FRET reads energy transfer from a long-lived donor to a nearby acceptor.

As usually defined, the IC50 is the concentration that inhibits the measured activity by half. Take `CC(=O)c1c(C)c2cnc(Nc3ccc(N4CCNCC4)cn3)nc2n(C2CCCC2)c1=O` [palbociclib]: the IC50 in assay [1] is over 3000 nM. As to `C[C@@]1(O)CCC[C@H]1n1c(=O)ccc2cnc(NC3CCN(S(C)(=O)=O)CC3)nc21` [Compound A, 8-((1R,2R)-2-hydroxy-2-methylcyclopentyl)-2-((1-(methylsulfonyl)piperidin-4-yl)amino)pyrido[2,3-d]pyrimidin-7(8H)-one], in assay [1], the “Rb phosphorylation on serine 780” value is “inhibited Rb phosphorylation on serine 780” and the 50% inhibitory concentration (IC50) turned out to be 37 nM. The “percentage of S phase cells” value in assay [2] (COV318, control siRNA-treated) is recorded as “significantly decreased”. Further, the “percentage of S phase cells” value in assay [2] (COV318, p16 knocked down by siRNA) is “not significantly decreased”. As to `O=C1N(C2CCCC2)c2nc(NC3CCN(S(=O)(=O)c4ccc(Cl)cc4)CC3)ncc2C12CC2` [Example B6, 2′-((1-((4-chlorophenyl)sulfonyl)piperidin-4-yl)amino)-7′-cyclopentylspiro[cyclopropane-1,5′-pyrrolo[2,3-d]pyrimidin]-6′(7′H)-one], the IC50 at CDK2/Cyclin E1 was 50 to 100 nM. Same read-out and setting: for `O=C1N(C2CCCC2)c2nc(NC3CCN(S(=O)(=O)C4CCOCC4)CC3)ncc2C12CC2` [Example B4, 7′-cyclopentyl-2′-((1-((tetrahydro-2H-pyran-4-yl)sulfonyl)piperidin-4-yl)amino)spiro[cyclopropane-1,5′-pyrrolo[2,3-d]pyrimidin]-6′(7′H)-one] the value was 100 to 500 nM; for `O=C1N(c2cc3c(cc2Cl)CNCC3)c2nc(NC3CCN(S(=O)(=O)c4ncc[nH]4)CC3)ncc2C12CC2` [Example B18, 2′-((1-((1H-imidazol-2-yl)sulfonyl)piperidin-4-yl)amino)-7′-(7-chloro-1,2,3,4-tetrahydroisoquinolin-6-yl)spiro[cyclopropane-1,5′-pyrrolo[2,3-d]pyrimidin]-6′(7′H)-one], at most 50 nM; for `CC1CCCC1N1C(=O)C2(CC2)c2cnc(NC3CCN(S(C)(=O)=O)CC3)nc21` (mixture of isomers) [Example B8, 7′-(2-methylcyclopentyl)-2′-((1-(methylsulfonyl)piperidin-4-yl)amino)spiro[cyclopropane-1,5′-pyrrolo[2,3-d]pyrimidin]-6′(7′H)-one], at most 50 nM. The same measure, in the same setting: for `CCC(C(F)F)N1C(=O)C2(CC2)c2cnc(NC3CCN(S(C)(=O)=O)CC3)nc21` (racemic) [Example B10, 7′-(1,1-difluorobutane-2-yl)-2′-((1-(methylsulfonyl)piperidin-4-yl)amino)spiro[cyclopropane-1,5′-pyrrolo[2,3-d]pyrimidin]-6′(7′H)-one] the value was at most 50 nM.

Source of the values: US20200316064A1, “CYCLIN-DEPENDENT KINASE 2 BIOMARKERS AND USES THEREOF” (Incyte Corporation, priority 2019, published 2020).
